# Experimental data taken from patent US11199553B2, “25-OH vitamin D derivatives for determining vitamin D metabolites” (ORGENTEC D[…], priority 2013, dated 2021).
# Test system: 25OHD antibody
# Conditions: even at a 25OHD3 concentration of 5 ng/ml; 7.5 ng/ml tracer; vitamin D-free serum matrix; OD 450 nm
# Protocol: For the ELISA detection of the specific 25OHD competition, 80 μl of vitamin D release reagent were added to serial dilutions of 25OHD3 in vitamin D-free serum matrix (SerCon, Seracare Inc.) in concentrations of 0, 5, 10, 20, 20, 50, 100, 200, 300 ng/ml in the presence of 7.5 ng/ml of biotin-25OHD tracer reagent and applied to microtitre plate wells coated with an anti-25OHD antibody. The binding of the tracer on the basis of the competing 25OHD concentration was determined with peroxidase-labelled streptavidin and a tetramethylbenzidine (TMB) colour reaction by measuring the OD 450 nm.
# An antibody against 25-OH-vitamin D3 or 25-OH-vitamin D2 was diluted in Tris-buffered saline pH 8.0 to a concentration of 1 μg/ml. The wells of a microtitre plate (Maxisorb, Nunc) were coated with 100 μl of the diluted antibody, dried at 37° C. and stored at 4° C. until the test was carried out.
# Defined concentrations of 25-OHD3 were added to vitamin D-free serum matrix (Seracon, Seracare Inc.). […] The antibody-bound biotin-25OHD tracer was detected with peroxidase-labelled streptavidin and a tetramethylbenzidine (TMB) colour reaction. After the substrate reaction had been stopped by addition of 100 μl of 50 mM phosphoric acid, the optical density was measured at 450 nm.
substance,measurement,value
3α-[α-biotinamido-ω-dodeca(ethylene glycol)-amido]-25-hydroxy-deoxyvitamin D3 [VD1],competition of the tracer by 25OHD3 for binding sites on the 25OHD antibody,specific competition
